Ends that are not written are not given here.
Test system: spontaneous contractions of the rat uterus
Assay: rat uterine contractility assay (Wiqvist & Paul)
Type: cell-based
Method: Using the above conditions chain combination yields from 1.5 to 6.0% have been achieved as measured by biological activity in the rat uterine contractility assay of Wiqvist & Paul (Acta Endocrinol., 29, 135-136, 1958).
Human relaxin H2 [S-thioethyl Cys^10,11,15 ] A(1-24) (4.2 mg dry wt., 2.4 mg peptide by amino acid analysis, 0.84 μmole) was dissolved in 500 μl of 0.1M glycine buffer pH 10.5 in a 3 ml stoppered plastic centrifuge tube. Human relaxin H2 [S-sulfo Cys^10,11 ] B(-1-24) (1.60 mg, 1.60 mg peptide by amino acid analysis, 0.33 μmole) dissolved in 200 μl of 0.1M glycine buffer pH 10.5 was added and the mixture agitated. An aliquot (23.0 μl, 2.21 μmole DTT) of a stock solution of dithithreitol (DTT) made up in 0.1M glycine buffer pH 10.5 (0.96 μmole DTT in 10 μl) was added to the peptide solution and following a brief agitation the reaction mixture was allowed to stand at 4° C. for 24 hours open to the air. The mixture was then centrifuged and aliquots of the supernatant solution tested for relaxin biological activity in the rat uterine contractility assay.
The synthetic S-sulfonated and S-thioethyl H2 human relaxin A(1-24) peptides were coupled to S-thioethyl H2 human relaxin B(-1-32) using the same chain combination procedures described previously for the shortened B-chain (-1-24). […]

Substance: hRLX A(1-24)-B(-1-32): Authentic human relaxin H2: synthetic A chain (1-24) combined with full length B chain (-1-32) (Relaxin B chain DSWMEEVIKLCGRELVRAQIAICGMSTWS; Relaxin A chain QLYSALANKCCHVGCTKRSLARFC; ends and bridges not checked; cysteine pairing not given here; UniProt P04090 25-53; P04090 162-185, looked up)
- inhibition of uterine contractions by a 100 μl aliquot (100 μl aliquot of chain combination mixture, compared to native pig relaxin A22 B31 standard): completely inhibited uterine contractions
- inhibition of the spontaneous contractions of the rat uterus by aliquots of the chain combination reaction mixture (aliquots of supernatant of chain combination mixture): inhibited the spontaneous contractions of the rat uterus in a dose-related manner

Reference: patent US5326694A, “Process for synthesizing human H2-prorelaxin, human H2-relaxin and fusion proteins thereof” (Howard Florey Institute of Experimental Physiology and …, priority 1982, dated 1994)
